Measured values taken from publication PMC7005646, “Overcoming resistance to anabolic SARM therapy in experimental cancer cachexia with an HDAC inhibitor” (EMBO Molecular Medicine, 2020).

Tests used:
C‐26 tumor‐bearing mice [1] = assay: Combined androgen and AR‐42 study (Study 4), C‐26 model; assay type: in vivo, mouse
Description: These studies were performed as previously described (Tseng et al, 2015a) with modifications. Tumors were established in the right flank of CD2F1 mice by subcutaneous injection of C‐26 cells (0.5 × 10^6 cells in 0.1 ml). […] TFM‐4AS‐1 (a potent experimental SARM), DHT, and vehicles were administered by subcutaneous injection.
Similar to Study 2, the tumor‐free control group was maintained at six animals, whereas 10 animals were included in each of the 6 tumor‐bearing groups. Six days after cell injection, animals with palpable tumors were treated once daily for 13 days with vehicles for AR‐42 and TFM‐4AS‐1/DHT (n = 9), AR‐42 (10 mg/kg; TFM‐4AS‐1/DHT vehicle; n = 10), TFM‐4AS‐1 (10 mg/kg; AR‐42 vehicle; n = 9), DHT (3 mg/kg; AR‐42 vehicle; n = 10), the combination of AR‐42 and TFM‐4AS‐1 (10 mg/kg each; n = 9), or the combination of AR‐42 (10 mg/kg) and DHT (3 mg/kg; n = 10). Grip strength was measured, and tissues were collected as in the previous studies.
Forelimb grip strength was measured using Bio‐GS3 Grip Strength Test Meter (Forceleader DBA Bioseb, Pinellas Park, FL). Each mouse was held by the base of its tail and lowered over the apparatus until its forepaws grasped the metal pull bar. […] The force applied to the bar at the moment of release was recorded as the peak force. […]

pSTAT3 (Y705) = assay: pSTAT3/tSTAT3 Western blot of gastrocnemius muscle; assay type: in vivo, mouse
Description: Western blots from all studies were performed on gastrocnemius muscle from representative animals lysed by Nonidet P‐40 isotonic lysis buffer [50 mM Tris–HCl, pH 7.5, 120 mM NaCl, 1% (v/v) Nonidet P‐40, 1 mM EDTA, 50 mM NaF, 40 mM glycerophosphate, and […] each of protease inhibitors (aprotinin, pepstatin, and leupeptin)]. Equivalent amounts of protein from each sample, as determined by the Bradford assay (Bio‐Rad), were resolved by SDS–PAGE and then transferred (semi‐dry) onto Immobilon nitrocellulose membranes (Millipore, Bellerica, MA). Membranes were washed twice with TBST [Tris‐buffered saline (TBS) containing 0.1% Tween‐20], blocked with 5% non‐fat milk in TBST for 1 h, and then washed an additional three times. Membranes were incubated with specific primary antibody in TBST (1:1,000) at 4°C overnight, washed three times (TBST), and then incubated with appropriate goat anti‐rabbit or anti‐mouse IgG–horseradish peroxidase‐conjugated secondary antibodies (1:5,000) at room temperature (1 h). Following additional washes (TBST), immunoblots were visualized as appropriate by ECL chemiluminescence (Amersham Biosciences, Little Chalfont, United Kingdom) or Duration HRP Chemiluminescence (Alkali Scientific, Florida, United States). Primary antibodies: phospho‐STAT3 (Tyr705) (D3A7) XP® rabbit mAb #9145, STAT3 (124H6) mouse mAb #9139 (Cell Signaling Technology, Danvers, MA); α‐tubulin (B‐7), sc‐5286 (Santa Cruz Biotechnologies, Santa Cruz, CA); androgen receptor (EP670Y), ab52615 (Abcam, Cambridge, MA) and GAPDH (6C5), sc‐32233 (Santa Cruz Biotechnologies, Santa Cruz, CA).

[2] = male rats, 0.5 mpk; ref Xenobiotica. 2013 Nov;43(11):993-1009; cited from earlier work
LLC tumor‐bearing mice = assay: AR‐42/GTx‐024 combination study in the LLC cachexia model (Study 5); assay type: in vivo, mouse
Description: This study was performed as previously described (Tseng et al, 2015a) with modifications. Tumors were established in the right hindlimb of male C57BL/6NHsd mice by intramuscular injection of LLC cells (0.5 × 10^6 cells in 0.05 ml). Similar to Study 3, the tumor‐free control group was maintained at six animals, whereas 12 animals were included in each of the tumor‐bearing groups. […] Grip strength, body weight, and food consumption were measured, and tissues were collected as in the previous C‐26 studies.

serum cytokines = assay: Serum cytokine panel (multiplex), terminal samples from Study 2; assay type: in vivo, mouse; conditions: GTx‐024 15 mg/kg, mean ± SD
Description: This confirmatory study was performed exactly as Study 1 with expanded animal numbers. Tumor‐free control groups were maintained at 6 animals each, whereas 10 animals were included in each of the tumor‐bearing groups. […] Grip strength was measured on study days 0 (baseline) and 16. Due to rapid model progression, this study was terminated on day 17 after only 12 days of treatment.
Serum cytokine panel analyses were performed by a commercial vendor (Eve Technologies, Calgary, Canada) as previously described (Tseng et al, 2015a). Serum interleukin‐6 (IL‐6) was measured using a commercial ELISA kit (R&D Systems, Minneapolis, MN, USA) according to the manufacturer's instructions.

C‐26 tumor‐bearing mice [3] = assay: Initial AR‐42/GTx‐024 combination study (Study 1), male C‐26 tumor‐bearing mice; assay type: in vivo, mouse
C‐26 cells = assay: Cell viability assay (CCK‐8); assay type: cell-based, mouse; conditions: up to 10 µM, 48 hours
Description: Cell viability assays were conducted using the CCK‐8 kit (Dojindo Molecular Technologies, Inc; Kumamoto, Japan). Briefly, 1,250 cells per well were plated on 96‐well plates and allowed to adhere overnight.

[4] = system: serum‐luteinizing hormone; assay: Serum luteinizing hormone radioimmunoassay, Study 1; assay type: in vivo, mouse; conditions: Study 1, day 18, 15 mg/kg, C‐26 tumor‐bearing mice
Description: Luteinizing hormone was measured in serum by a two‐site sandwich radioimmunoassay performed by the Ligand Assay and Analysis Core at the Center for Research in Reproduction, University of Virginia School of Medicine (Charlottesville, VA). Serum was isolated by centrifugation (2,000 g, 15 min) from whole blood samples collected from mice immediately post‐mortem, and then stored at −80°C until shipment on dry ice.

[5] = GTx‐024 plasma pharmacokinetics, LLC tumor‐bearing C57BL/6NHsd mice; assay type: in vivo, mouse
Description: Blood was collected by cardiac puncture into heparinized tubes (BD Microtainer, Becton, Dickinson and Company, Franklin Lakes, NJ, USA) and immediately centrifuged at room temperature for 3 min at 4,200 RCF. Plasma was removed and placed on dry ice prior to storage at −80°C until analysis. Bioanalytical analyses were conducted as previously described (Cheng et al, 2016) by Charles River Laboratories, Inc. (Wilmington, MA, USA). Non‐compartmental analysis was performed using the PKNCA package in R version 3.6.0.

[6] = C‐26 Tumor‐bearing, AR‐42 10 mg/kg, or both
[7] = Study 1, male, day 18, GTx‐024 15 mg/kg, AR‐42 10 mg/kg, or both
[8] = male, C57BL/6NHsd, mouse, single 15 mg/kg oral dose, plasma

Which “sparing of body weight or mass of gastrocnemius or quadriceps” value (C‐26 tumor‐bearing mice [1]; Study 4, monotherapy 10 mg/kg subcutaneous) does the source give for `CN1C(=O)C=C[C@]2(C)[C@H]3CC[C@]4(C)[C@@H](C(=O)Nc5ccccc5C(F)(F)F)CC[C@H]4[C@@H]3CC[C@@H]12` [TFM‐4AS‐1] here?
The value was “did not spare body weight”.

For `C[C@](O)(COc1ccc(C#N)cc1)C(=O)Nc1ccc(C#N)c(C(F)(F)F)c1` [GTx‐024, (S)‐N‐(4‐cyano‐3‐(trifluoromethyl)phenyl)‐3‐(4‐cyanophenoxy)‐2‐hydroxy‐2‐methylpropanamide], which pSTAT3 in gastrocnemius (pSTAT3 (Y705); female C‐26 tumor‐bearing mice, Study 3) is on record?
Its pSTAT3 in gastrocnemius is “reduced levels of pSTAT3 activation”.

What about the pSTAT3 in gastrocnemius (pSTAT3 (Y705); male C‐26 tumor‐bearing mice, Study 1) of the same compound?
Its pSTAT3 in gastrocnemius is “no apparent effect”.

What about the AUCinf [2] of the same compound?
Its AUCinf is “approximately 4.3 ug*hr/mL”.

What about the LLC tumor growth (LLC tumor‐bearing mice; Study 5, 15 mg/kg daily oral) of the same compound?
Its LLC tumor growth is “stimulated LLC tumor growth”.

What about the LLC tumor growth (LLC tumor‐bearing mice; repeat of Study 5, 0.5 mg/kg daily oral) of the same compound?
The LLC tumor growth was “did not promote LLC tumor growth”.

What about the “response of body weight and skeletal muscle mass loss” value (LLC tumor‐bearing mice; repeat of Study 5, 10 mg/kg AR‐42, 0.5 mg/kg GTx‐024, or both) of the same compound?
The value was “did not respond”.

What about the “GM‐CSF, serum” value (serum cytokines; [6]) of the same compound?
The value was 17.35 ± 4.33 pg/mL.

And the “G‐CSF, serum” value (serum cytokines; [6])?
Its value is 2446.63 ± 1625.70 pg/mL.

And the “IL‐6, serum” value (serum cytokines; [6])?
Its value is 397.54 ± 341.43 pg/mL.

And the “IL‐17, serum” value (serum cytokines; [6])?
The value was 1.75 ± 1.28 pg/mL.

What about the “IP‐10, serum” value (serum cytokines; [6]) of the same compound?
Its value is 154.76 ± 17.98 pg/mL.

And the “KC, serum” value (serum cytokines; [6])?
The value was 288.89 ± 154.46 pg/mL.

What about the “LIF, serum” value (serum cytokines; [6]) of the same compound?
Its value is 45.26 ± 21.57 pg/mL.

What about the “LIX, serum” value (serum cytokines; [6]) of the same compound?
Its value is 5234.39 ± 4771.34 pg/mL.

And the “M‐CSF, serum” value (serum cytokines; [6])?
Its value is 22.23 ± 9.45 pg/mL.

And the “GM‐CSF, serum” value (serum cytokines; Tumor‐free)?
Its value is 13.27 ± 4.62 pg/mL.

What about the “G‐CSF, serum” value (serum cytokines; Tumor‐free) of the same compound?
The value was 338.39 ± 71.70 pg/mL.

And the “IL‐6, serum” value (serum cytokines; Tumor‐free)?
Its value is 2.45 ± 1.31 pg/mL.

And the “IL‐17, serum” value (serum cytokines; Tumor‐free)?
Its value is 5.01 ± 1.18 pg/mL.

What about the “IP‐10, serum” value (serum cytokines; Tumor‐free) of the same compound?
The value was 145.68 ± 48.83 pg/mL.

What about the “KC, serum” value (serum cytokines; Tumor‐free) of the same compound?
The value was 90.02 ± 17.69 pg/mL.

And the “LIF, serum” value (serum cytokines; Tumor‐free)?
Its value is 2.50 ± 2.34 pg/mL.

What about the “LIX, serum” value (serum cytokines; Tumor‐free) of the same compound?
The value was 1316.67 ± 1662.66 pg/mL.

What about the “M‐CSF, serum” value (serum cytokines; Tumor‐free) of the same compound?
Its value is 27.23 ± 10.09 pg/mL.

What about the “body weight in tumor‐free controls” value (C‐26 tumor‐bearing mice [3]; Study 1, 15 mg/kg daily oral) of the same compound?
The value was “did not cause body weight loss”.

And the “terminal body weight corrected for tumor mass” value (C‐26 tumor‐bearing mice [3]; Study 1, male, day 18, 13 days daily oral, GTx‐024 15 mg/kg, AR‐42 10 mg/kg, or both)?
The value was 79.0 ± 11.2 % of tumor‐free controls.

And the terminal gastrocnemius mass (C‐26 tumor‐bearing mice [3]; [7])?
Its terminal gastrocnemius mass is 84 ± 11.3 % of tumor‐free controls.

And the terminal quadriceps mass (C‐26 tumor‐bearing mice [3]; [7])?
The terminal quadriceps mass was 80.0 ± 9.1 % of tumor‐free controls.

And the “direct effects on C‐26 cell viability” value (C‐26 cells)?
Its value is “did not detect differences in the direct effects”.

And the “serum‐luteinizing hormone” value [4]?
Its value is “suppressed serum‐luteinizing hormone”.

What about the “projected mouse exposure at 0.5 mpk over rat exposure at 0.5 mpk” value ([5]; 28.8 vs 4.3 ug*hr/mL) of the same compound?
Its value is 6.7 fold.

What about the “exposure projected for 0.5 mg/kg” value ([5]; 30‐fold dose reduction from 15 mg/kg, mouse) of the same compound?
The value was ~ 28.8 μg*h/ml.

And the AUC(0-inf) [5, 8]?
Its AUC(0-inf) is 863 µg·h/mL.

And the AUC(0-t) [5, 8]?
The AUC(0-t) was 721 µg·h/mL.

What about the Cmax [5, 8] of the same compound?
The Cmax was 25800 ng/mL.

And the half-life [5, 8]?
Its half-life is 1090 min.

Which “C‐26 tumor growth” value (C‐26 tumor‐bearing mice [1]; Study 4, DHT alone 3 mg/kg, after 8 days of administration) does the source give for `C[C@]12CCC(=O)C[C@@H]1CC[C@@H]1[C@@H]2CC[C@]2(C)[C@@H](O)CC[C@@H]12` [DHT, dihydrotestosterone] here?
Its value is “tumor growth was significantly suppressed”.

What about the “direct effects on C‐26 cell viability” value (C‐26 cells) of the same compound?
The value was “did not detect direct effects”.
